This passage reports inhibition results from US7563781B2, “Triazolopyrimidine derivatives” (Janssen Pharmaceutica NV, priority 2006, dated 2009).

The target of test [1] is T1, Focal Adhesion Kinase (full-length Flag-tagged human FAK) (Homo sapiens, UniProt Q05397).
T1 construct: a purified recombinant full-length Flag-tagged human FAK protein; Flag; made in house; host or cells: baculovirus infected insect cells
The experiment in a line: in vitro FAK ELISA kinase assay. The class given is biochemical. Particulars: compound 10 uM; ATP 2 uM; read-out: FAK % Inhib ave: 10 uM. As to the method:
Compound effects on the tyrosine kinase activity of Focal Adhesion Kinase were assessed with an in vitro FAK ELISA kinase assay. This assay measures the incorporation of phosphate from ATP into a FAK substrate protein using an antibody specific for phospho-tyrosine.
500 ng of FAKsubstrate, a purified recombinant fusion protein of GST and a 73 amino acid region surrounding the Tyr397 human FAK autophosphorylation site, was coated in a high-protein binding polystyrene 96 well plate overnight in a buffer containing 50 mM Hepes, pH 7.5, 150 mM NaCl, 0.1 mM Na-oVO4, 0.1 mM NaF and 1 protease inhibitor tablet/10 mL (Complete Mini-EDTA-free, Roche). The next day this solution was removed and the wells were incubated with 0.2% BSA in 50 mM Hepes, pH 7.5, 150 mM NaCl, 0.2 mM PMSF for 1 hour at 30° C. to block unoccupied protein binding sites. The wells were then washed with 50 mM Hepes, pH 7.5, 150 mM NaCl, 0.1% Tween 20. The kinase reaction was performed with 25 ng/well of FAK enzyme (a purified recombinant full-length Flag-tagged human FAK protein made in baculovirus infected insect cells) in 0.1 mL of a buffer containing 25 mM Hepes, pH 7.5, 5 mM MgCl2, 0.5 mM MnCl2, 10 uM NaoVO4, 0.2 mM PMSF. Compounds were added from 30% DMSO stock solutions for a screening concentration of 10 uM or IC50 determinations from 50 uM in half-log dilutions. The reaction is initiated with addition of ATP to a final concentration of 2 uM and incubated at 30° C. for 1 hour. Following the kinase reaction step, the wells were washed and incubated with 50 ng of Horseradish Peroxidase conjugated anti-phosphotyrosine antibody (PT-66 HRP, Sigma) in 0.1 mL wash buffer for 1 hour at 30° C. Wells were then washed and 0.1 mL HRP substrate, Tetra-methyl Benzidine (Sigma) was added and the color reaction allowed to proceed for 2-3 minutes followed by the addition of 0.1 mL of 1N H2SO4 to stop the HRP reaction. Percent inhibition of FAK kinase activity was calculated by comparing compound containing wells to wells treated with diluent only. Background was subtracted from all wells and was defined as the activity of FAK using 500 ng/well of BSA as a substrate. IC50 values were obtained using Prism data analysis software.

Test [2] has as its target T2, CAK complex (human Cdk7, human Cyclin H, MAT-1) (Homo sapiens, UniProt P50613).
T2 construct: made in house; host or cells: SF-900 insect cells co-infected with Flag-Cdk7 and Bab-Cyclin H baculoviruses
The test is described as follows: in vitro time-resolved-fluorescence assay for the CAK kinase activity. Type of test: biochemical. Particulars: compound 20 uM; read-out: CAK % inhib; 20 uM. From the text: Cyclin Dependent Kinase Activating Kinase (CAK) is a complex of proteins that phosphorylates a well-conserved threonine (Thr) residue in all mammalian cyclin dependent kinases (cdks). The CAK complex can also phosphorylate several components of the transcriptional machinery, such as the C-terminal domain (CTD) of RNA polymerase II in the TFIIH transcription complex. The CAK complex localizes to the nucleus, and is composed of three proteins: Cdk7, Cyclin H, and MAT-1. The exemplified method teaches the cloning and expression CAK subunits, particularly a human Cdk7 and a human Cyclin H. The method of the present invention exemplified herein is equally applicable to the cloning and expression of any CAK subunit, such as variants, structural or functional polymorphisms of the human Cdk7 or the human Cyclin H, or their orthologs in other animals such as rat, mouse, pig, dog and monkey.
The CAK complex was purified from co-infected SF-900 insect cells at 48 hours post infection by batch immunoaffinity purification. The infected cells were pelleted by centrifugation and lysed in 1/10 of the culture volume in a solution containing 50 mM Hepes pH 7.5, 10 mM MgCl2, 1 mM DTT, 10 mM Beta-Glycerol phosphate, 20 uM Na-oVO4, 0.2 mM PMSF and 1 μg/mL each of leupeptin, aprotinin, and pepstatin on ice. Cells were mechanically lysed by trituration through a 22-gauge needle followed by sonication or alternately by nitrogen cavitation. The lysed cells were centrifuged at 50,000×G for 1 hour at 4° C. to remove debris and the supernatant was applied to 1/10 volume of prewashed Flag-M2 immunoaffinity resin (Sigma). The CAK complex, by nature of the Flag tagged Cdk7 protein, was allowed to bind to the Flag antibody of the resin overnight at 4° C. with gentle rocking. The resin was washed 4 times with 5 resin volumes of lysis buffer and the bound proteins were eluted by competition with 0.5 mg/mL Flag peptide ([…], American Peptide Co, Inc., SEQ ID NO: 16) in a total of 2 resin volumes. To remove the Flag peptide, the eluted material was applied to PD-10 gel filtration columns (Pharmacia) under conditions recommended by the manufacturer.
Measurement of CAK kinase activity was accomplished using an antibody methodology in which a Europium labeled antibody binds preferentially to serine phosphorylated GST-CTD substrate. The long-lived europium label fluorescence allows a greater signal-to-noise ratio due to the delay in reading the emission wavelength, thereby eliminating signals from immediate fluorescence and fluorescent pharmaceutical screening compounds.
The time-resolved-fluorescence assay for the CAK kinase activity is performed as follows. In a well of a black glutathione coated 96 well micro titer plate (Pierce Chemical, No. 15360), the following reagents were added: 1) 25 ul substrate solution containing 500 ng purified GST-CTD in a buffer having 50 mM Hepes pH 7.5, 10 mM MgCl2, 1 mM DTT, 0.2 mM PMSF, 40 uM Na-oVO4, and 22 uM ATP (as a background control, the buffer, including ATP but not substrate was added); 2) 2.5 ul of screening compounds in a diluent containing 30% DMSO/25 mM Hepes pH7.5 (As a control, the diluent only was added. Typically the final concentration of compound is 1 uM); and 3) 250 ng CAK enzyme complex in enzyme buffer containing 25 ul of 50 mM Hepes pH 7.5, 10 mM MgCl2, 1 mM DTT, 0.2 mM PMSF, and 40 uM Na-oVO4. The micro titer plate was shaken for 2 minutes on a titer plate shaker and allowed to incubate at 30° C. for 20 minutes.
Subsequently, Kinase Stop Solution (75 mM EDTA, 0.2 mM PMSF, 1 mM DTT, 120 uM Na oVO4 in PBS) was added (50 ul/well). The plate was shaken for 2 minutes and incubated overnight at room temperature to allow substrate binding to the wells. The plate contents were flicked out, and the wells of the plate were washed 4 times with 350 ul of wash buffer (Delphia wash buffer, Perkin-Elmer, Inc.). The plate was tapped dry. […]

T1 sequence (Q05397 whole entry): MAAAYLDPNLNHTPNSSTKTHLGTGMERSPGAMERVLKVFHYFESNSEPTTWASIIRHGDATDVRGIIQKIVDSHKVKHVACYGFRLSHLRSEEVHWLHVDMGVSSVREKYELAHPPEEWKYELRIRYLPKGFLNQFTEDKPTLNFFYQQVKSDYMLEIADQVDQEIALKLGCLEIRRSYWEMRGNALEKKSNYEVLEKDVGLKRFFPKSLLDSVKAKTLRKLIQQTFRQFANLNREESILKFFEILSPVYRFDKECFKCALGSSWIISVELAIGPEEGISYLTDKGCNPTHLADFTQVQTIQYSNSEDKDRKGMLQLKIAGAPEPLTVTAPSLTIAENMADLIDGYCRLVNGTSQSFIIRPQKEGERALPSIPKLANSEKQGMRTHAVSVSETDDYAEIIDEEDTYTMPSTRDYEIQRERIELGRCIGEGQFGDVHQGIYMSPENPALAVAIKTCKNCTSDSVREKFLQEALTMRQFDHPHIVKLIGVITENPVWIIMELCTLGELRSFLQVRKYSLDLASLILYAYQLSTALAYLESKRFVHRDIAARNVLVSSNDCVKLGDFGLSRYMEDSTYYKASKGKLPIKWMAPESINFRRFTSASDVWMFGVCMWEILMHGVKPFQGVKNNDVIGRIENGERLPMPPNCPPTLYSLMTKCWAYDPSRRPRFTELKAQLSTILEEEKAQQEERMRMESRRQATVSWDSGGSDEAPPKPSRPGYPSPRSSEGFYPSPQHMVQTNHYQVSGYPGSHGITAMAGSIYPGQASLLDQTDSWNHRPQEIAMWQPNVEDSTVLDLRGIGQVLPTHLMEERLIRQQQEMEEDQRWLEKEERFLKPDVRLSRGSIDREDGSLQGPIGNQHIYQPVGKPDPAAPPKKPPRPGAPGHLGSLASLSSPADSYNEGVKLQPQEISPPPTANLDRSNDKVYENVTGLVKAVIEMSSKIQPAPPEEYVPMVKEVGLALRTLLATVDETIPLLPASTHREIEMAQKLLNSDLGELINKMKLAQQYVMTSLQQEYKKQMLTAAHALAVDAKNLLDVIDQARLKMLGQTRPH
T2 sequence (P50613 with tags, fused parts or gaps): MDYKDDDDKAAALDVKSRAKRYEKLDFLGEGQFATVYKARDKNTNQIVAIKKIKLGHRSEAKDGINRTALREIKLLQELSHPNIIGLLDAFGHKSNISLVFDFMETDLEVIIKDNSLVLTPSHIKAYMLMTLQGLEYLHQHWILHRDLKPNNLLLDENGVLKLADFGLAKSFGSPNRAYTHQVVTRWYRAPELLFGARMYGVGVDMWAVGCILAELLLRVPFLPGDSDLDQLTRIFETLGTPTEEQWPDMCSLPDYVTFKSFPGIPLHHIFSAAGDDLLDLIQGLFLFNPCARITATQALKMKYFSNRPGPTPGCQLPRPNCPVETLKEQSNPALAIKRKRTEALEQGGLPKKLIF
T2 sequence (as listed by the source partner): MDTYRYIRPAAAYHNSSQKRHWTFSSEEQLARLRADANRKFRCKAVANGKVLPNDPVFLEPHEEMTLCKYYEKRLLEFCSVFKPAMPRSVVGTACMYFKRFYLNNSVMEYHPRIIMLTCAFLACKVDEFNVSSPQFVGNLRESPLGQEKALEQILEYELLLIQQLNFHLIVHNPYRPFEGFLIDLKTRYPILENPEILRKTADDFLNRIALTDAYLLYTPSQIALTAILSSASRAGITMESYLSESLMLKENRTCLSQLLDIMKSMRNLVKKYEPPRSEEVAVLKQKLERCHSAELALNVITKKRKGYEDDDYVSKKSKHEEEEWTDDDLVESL

Take `CN1CCN(CCCNC(=O)c2ccc(Nc3ncc4nnn(-c5ccc6c(c5)CCC6)c4n3)cc2)CC1` [Compound 78, 4-(3-Indan-5-yl-3H-[1,2,3]triazolo[4,5-d]pyrimidin-5-ylamino)-N-[3-(4-methyl-piperazin-1-yl)-propyl]-benzamide]: the inhibition at 10 µM in test [1] is 72%. Moreover, the inhibition at 20 µM in test [2] worked out at 89%.

For the compound `CN(C)CC(O)COc1ccc(Nc2ncc3nnn(-c4ccccc4)c3n2)cc1` (stereo not shown) [Compound 8, 1-Dimethylamino-3-[4-(3-phenyl-3H-[1,2,3]triazolo[4,5-d]pyrimidin-5-ylamino)-phenoxy]-propan-2-ol], the inhibition at 10 µM in test [1] came to 77.4%. The inhibition at 20 µM in test [2] came to 92.2%.

Turning to `CCN(CC)CCNC(=O)c1ccc(Nc2ncc3nnn(-c4ccc5c(c4)CCC5)c3n2)cc1` [Compound 22, N-(2-Diethylamino-ethyl)-4-(3-indan-5-yl-3H-[1,2,3]triazolo[4,5-d]pyrimidin-5-ylamino)-benzamide], in test [1], the inhibition at 10 µM was 98.9%. Further, in test [2], the inhibition at 20 µM worked out at 96.9%.

In the case of `CN(C)CC(O)COc1ccc(Nc2ncc3nnn(-c4ccc5ccccc5c4)c3n2)cc1` (stereo not shown) [Compound 12, 1-Dimethylamino-3-[4-(3-naphthalen-2-yl-3H-[1,2,3]triazolo[4,5-d]pyrimidin-5-ylamino)-phenoxy]-propan-2-ol], the inhibition at 10 µM in test [1] worked out at 82.9%. For the same compound, the inhibition at 20 µM in test [2] was determined as 92.4%.

For `CCN(CC)CCCOc1ccc(Nc2ncc3nnn(-c4ccc5c(c4)CCC5)c3n2)cc1` [Compound 87, [4-(3-Diethylamino-propoxy)-phenyl]-(3-indan-5-yl-3H-[1,2,3]triazolo[4,5-d]pyrimidin-5-yl)-amine], the inhibition at 10 µM in test [1] was 81.5%. The inhibition at 20 µM in test [2] is 99.5%.

With `CCCCNS(=O)(=O)c1ccc(OC)c(-n2nnc3cnc(Nc4ccc(C(=O)NCCN(CC)CC)cc4)nc32)c1` [Compound 86, 4-[3-(5-Butylsulfamoyl-2-methoxy-phenyl)-3H-[1,2,3]triazolo[4,5-d]pyrimidin-5-ylamino]-N-(2-diethylamino-ethyl)-benzamide], the inhibition at 10 µM in test [1] is 65.1%. Also, the inhibition at 20 µM in test [2] is 110%.

Regarding `CCN(CC)CCNC(=O)c1ccc(Nc2ncc3nnn(-c4ccc(C(=O)NCCN(CC)CC)cc4)c3n2)cc1` [Compound 52], the inhibition at 10 µM in test [1] was determined as 47.9%. The inhibition at 20 µM in test [2] is -19.1%.

As to `CCN(CC)CCNC(=O)c1ccc(-n2nnc3cnc(Nc4cccc(-c5nnn[nH]5)c4)nc32)cc1` [Compound 65, N-(2-Diethylamino-ethyl)-4-{5-[3-(1H-tetrazol-5-yl)-phenylamino]-[1,2,3]triazolo[4,5-d]pyrimidin-3-yl}-benzamide], the inhibition at 10 µM in test [1] amounted to 54.7%. Also, in test [2], the inhibition at 20 µM was determined as 42.7%.

As to `CN(C)CC(O)COc1ccc(Nc2ncc3nnn(C4CCC(C(=O)O)CC4)c3n2)cc1` (stereo not shown) [Compound 30, 4-{5-[4-(3-Dimethylamino-2-hydroxy-propoxy)-phenylamino]-[1,2,3]triazolo[4,5-d]pyrimidin-3-yl}-cyclohexane-carboxylic acid], the inhibition at 10 µM in test [1] turned out to be 30%. For the same compound, in test [2], the inhibition at 20 µM came out at 38.6%.

Take `O=C(NCCCN1CCCC1)c1cccc(Nc2ncc3nnn(-c4ccc5c(c4)CCC5)c3n2)c1` [Compound 72, 3-(3-Indan-5-yl-3H-[1,2,3]triazolo[4,5-d]pyrimidin-5-ylamino)-N-(3-pyrrolidin-1-yl-propyl)-benzamide]: in test [1], the inhibition at 10 µM is 81.5%. Besides, in test [2], the inhibition at 20 µM came out at 98.4%.

On to `COc1cc(-n2nnc3cnc(Nc4ccc5[nH]ncc5c4)nc32)cc(OC)c1OC` [Compound 43], for which, in test [1], the inhibition at 10 µM amounted to 33.3%. Further, the inhibition at 20 µM in test [2] turned out to be 11.8%.

As to `COc1cc(Nc2ncc3nnn(-c4cc(OC)c(OC)c(OC)c4)c3n2)cc(OC)c1OC` [Compound 42, (3,4,5-Trimethoxy-phenyl)-[3-(3,4,5-trimethoxy-phenyl)-3H-[1,2,3]triazolo[4,5-d]pyrimidin-5-yl]-amine], in test [1], the inhibition at 10 µM amounted to 35.6%. Moreover, in test [2], the inhibition at 20 µM was 3.4%.

In the case of `NS(=O)(=O)c1cccc(Nc2ncc3nnn(-c4cccc(S(N)(=O)=O)c4)c3n2)c1` [Compound 47], the inhibition at 10 µM in test [1] was 63.6%. Moreover, the inhibition at 20 µM in test [2] came out at 51.3%.

Consider `CCN(CC)CCNC(=O)c1ccc(Nc2ncc3nnn(Cc4ccc(N(C)C)cc4)c3n2)cc1` [Compound 69, N-(2-Diethylamino-ethyl)-4-[3-(4-dimethylamino-benzyl)-3H-[1,2,3]triazolo[4,5-d]pyrimidin-5-ylamino]-benzamide], for which, in test [1], the inhibition at 10 µM was determined as 27%. Also, the inhibition at 20 µM in test [2] is -11.4%.

`CN(C)CC(O)COc1ccc(Nc2ncc3nnn(-c4ccc5ncsc5c4)c3n2)cc1` (stereo not shown) [Compound 14, 1-[4-(3-Benzothiazol-6-yl-3H-[1,2,3]triazolo[4,5-d]pyrimidin-5-ylamino)-phenoxy]-3-dimethylamino-propan-2-ol]: in test [1], the inhibition at 10 µM was 76.8%. Moreover, in test [2], the inhibition at 20 µM turned out to be 42.2%.

For `CN(C)CC(O)COc1ccc(Nc2ncc3nnn(-c4ccc5ncccc5c4)c3n2)cc1` (stereo not shown) [Compound 13, 1-Dimethylamino-3-[4-(3-quinolin-6-yl-3H-[1,2,3]triazolo[4,5-d]pyrimidin-5-ylamino)-phenoxy]-propan-2-ol], the inhibition at 10 µM in test [1] is 24.4%. In test [2], the inhibition at 20 µM is 72.6%.

Turning to `CN(C)CC(O)COc1ccc(Nc2ncc3nnn(C4CCCCC4)c3n2)cc1` (stereo not shown) [Compound 9, 1-[4-(3-Cyclohexyl-3H-[1,2,3]triazolo[4,5-d]pyrimidin-5-ylamino)-phenoxy]-3-dimethylamino-propan-2-ol], the inhibition at 10 µM in test [1] is 23%. Also, in test [2], the inhibition at 20 µM amounted to 85.9%.
